pEC50: −log10 of the molar value.
Tests used:
[1] = target: Probable G-protein coupled receptor 34 (Mus musculus, UniProt Q9R1K6); experiment: Agonist activity at mouse LPS1/GPR34 transfected in HEK293-A cells co-transfected with AP-TGFalpha assessed as AP-TGFalpha release by TGFalpha shedding assay; type: functional, cell-based
[2] = target: Probable G-protein coupled receptor 34 (Mus musculus) (UniProt Q9R1K6); experiment: Agonist activity at mouse LPS1/GPR34 transfected in HEK293-A cells co-transfected with AP-TGFalpha assessed as AP-TGFalpha release by TGFalpha shedding assay relative to LysoPS; type: functional, cell-based; settings: filed as agonist
[3] = target: Putative P2Y purinoceptor 10 (Mus musculus) (UniProt Q8BFU7); experiment: Agonist activity at mouse LPS2/P2Y10 transfected in HEK293-A cells co-transfected with AP-TGFalpha assessed as AP-TGFalpha release by TGFalpha shedding assay relative to LysoPS; type: functional, cell-based; settings: filed as agonist
[4] = target: Putative P2Y purinoceptor 10 (Mus musculus, UniProt Q8BFU7); experiment: Agonist activity at mouse LPS2/P2Y10 transfected in HEK293-A cells co-transfected with AP-TGFalpha assessed as AP-TGFalpha release by TGFalpha shedding assay; type: functional, cell-based; settings: for pEC50: read-out: EC50; for EC50: read-out: pEC50 (converted)
[5] = system: Putative P2Y purinoceptor 10 (Homo sapiens), O00398 [V159F]; experiment: Agonist activity at N-terminal FLAG-tagged human LPS2/P2Y10 V159F mutant transfected in HEK293-A cells co-transfected with AP-TGFalpha assessed as AP-TGFalpha release by TGFalpha shedding assay relative to LysoPS; type: cell-based; settings: filed as agonist
[6] = target: T1, Putative P2Y purinoceptor 10 (Homo sapiens, UniProt O00398); experiment: Agonist activity at wildtype N-terminal FLAG-tagged human LPS2/P2Y10 transfected in HEK293-A cells co-transfected with AP-TGFalpha assessed as AP-TGFalpha release by TGFalpha shedding assay relative to LysoPS; type: functional, cell-based; settings: filed as agonist
[7] = target: T1, Putative P2Y purinoceptor 10; experiment: Agonist activity at wildtype N-terminal FLAG-tagged human LPS2/P2Y10 transfected in HEK293-A cells co-transfected with AP-TGFalpha assessed as AP-TGFalpha release by TGFalpha shedding assay; type: functional, cell-based
[8] = target: Putative P2Y purinoceptor 10 (Homo sapiens, UniProt O00398, A163F); experiment: Agonist activity at N-terminal FLAG-tagged human LPS2/P2Y10 A163F mutant transfected in HEK293-A cells co-transfected with AP-TGFalpha assessed as AP-TGFalpha release by TGFalpha shedding assay; type: cell-based
[9] = system: Putative P2Y purinoceptor 10 (Homo sapiens), O00398 [A163F]; experiment: Agonist activity at N-terminal FLAG-tagged human LPS2/P2Y10 A163F mutant transfected in HEK293-A cells co-transfected with AP-TGFalpha assessed as AP-TGFalpha release by TGFalpha shedding assay relative to LysoPS; type: cell-based; settings: filed as agonist
[10] = target: Putative P2Y purinoceptor 10 (Homo sapiens, UniProt O00398, V159F); experiment: Agonist activity at N-terminal FLAG-tagged human LPS2/P2Y10 V159F mutant transfected in HEK293-A cells co-transfected with AP-TGFalpha assessed as AP-TGFalpha release by TGFalpha shedding assay; type: cell-based
[11] = target: T1, Putative P2Y purinoceptor 10; experiment: Agonist activity at human LPS2/P2Y10 transfected in HEK293-A cells co-transfected with AP-TGFalpha assessed as AP-TGFalpha release by TGFalpha shedding assay relative to LysopPS; type: functional, cell-based; settings: filed as agonist
[12] = target: T1, Putative P2Y purinoceptor 10; experiment: Agonist activity at human LPS2/P2Y10 transfected in HEK293-A cells co-transfected with AP-TGFalpha assessed as AP-TGFalpha release by TGFalpha shedding assay; type: functional, cell-based; settings: for pEC50: read-out: EC50

Sequence of Putative P2Y purinoceptor 10 (Mus musculus, UniProt Q8BFU7) (Q8BFU7 whole entry): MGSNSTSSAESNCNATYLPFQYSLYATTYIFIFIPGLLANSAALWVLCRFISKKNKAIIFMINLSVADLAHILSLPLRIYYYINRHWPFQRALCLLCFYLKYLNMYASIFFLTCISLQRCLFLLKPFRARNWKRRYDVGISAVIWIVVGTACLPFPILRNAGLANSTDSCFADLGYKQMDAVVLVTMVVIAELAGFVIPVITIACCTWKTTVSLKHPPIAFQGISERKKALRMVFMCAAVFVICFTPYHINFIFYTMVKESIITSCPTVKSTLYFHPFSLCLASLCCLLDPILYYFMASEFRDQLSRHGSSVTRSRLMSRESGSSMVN
Sequence of Putative P2Y purinoceptor 10 (Mus musculus) (Q8BFU7 whole entry): as above
T1 sequence (O00398 whole entry): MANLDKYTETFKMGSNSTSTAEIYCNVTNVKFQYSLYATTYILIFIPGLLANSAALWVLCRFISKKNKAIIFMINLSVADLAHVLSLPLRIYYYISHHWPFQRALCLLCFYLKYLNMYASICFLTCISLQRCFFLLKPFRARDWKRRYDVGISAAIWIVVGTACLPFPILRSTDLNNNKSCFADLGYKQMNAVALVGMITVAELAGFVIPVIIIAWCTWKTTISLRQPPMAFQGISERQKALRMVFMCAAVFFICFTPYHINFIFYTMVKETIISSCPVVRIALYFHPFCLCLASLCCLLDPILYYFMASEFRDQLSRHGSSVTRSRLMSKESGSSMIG
Sequence of Probable G-protein coupled receptor 34 (Q9R1K6 whole entry): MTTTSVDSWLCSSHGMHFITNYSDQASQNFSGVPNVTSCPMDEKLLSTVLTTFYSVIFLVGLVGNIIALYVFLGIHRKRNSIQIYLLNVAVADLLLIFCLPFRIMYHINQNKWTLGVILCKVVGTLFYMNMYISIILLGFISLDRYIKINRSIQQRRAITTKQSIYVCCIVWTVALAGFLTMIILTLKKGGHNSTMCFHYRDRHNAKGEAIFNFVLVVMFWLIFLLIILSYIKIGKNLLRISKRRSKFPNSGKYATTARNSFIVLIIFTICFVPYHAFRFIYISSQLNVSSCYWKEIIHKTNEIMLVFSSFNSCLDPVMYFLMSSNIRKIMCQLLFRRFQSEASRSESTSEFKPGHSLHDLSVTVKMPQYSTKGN
Sequence of Putative P2Y purinoceptor 10 (Homo sapiens), O00398 [A163F] (O00398 whole entry A163F): as the sequence (O00398 whole entry) above, with A163F counted along it
Sequence of Putative P2Y purinoceptor 10 (Homo sapiens, UniProt O00398, A163F) (O00398 whole entry A163F): as the sequence (O00398 whole entry) above, with A163F counted along it
Sequence of Putative P2Y purinoceptor 10 (Homo sapiens), O00398 [V159F] (O00398 whole entry V159F): as the sequence (O00398 whole entry) above, with V159F counted along it
Sequence of Putative P2Y purinoceptor 10 (Homo sapiens, UniProt O00398, V159F) (O00398 whole entry V159F): as the sequence (O00398 whole entry) above, with V159F counted along it
Sequence of Probable G-protein coupled receptor 34 (Mus musculus) (Q9R1K6 whole entry): as the sequence (Q9R1K6 whole entry) above

CCCCCCCCCCCOc1ccccc1CCC(=O)OCCCOP(=O)(O)OC[C@H](N)C(N)=O showed a pEC50 [1] of 5.80, an Emax [2] of 94% and an Emax [3] of 111%. The pEC50 [4] was 8.57.

CCc1ccc(Oc2ccccc2CCC(=O)OCCCOP(=O)(O)OC[C@H](N)C(=O)O)cc1 showed an Emax [3] of 72% and a pEC50 [4] of 6.09.

Molecule Cc1cc(C)cc(Oc2ccccc2CCC(=O)OCCCOP(=O)(O)OC[C@H](N)C(=O)O)c1 has an Emax [3] of 114% and a pEC50 [4] of 6.89.

Molecule N[C@@H](COP(=O)(O)OCCCOC(=O)CC(=O)Cc1ccccc1Oc1ccc(-c2ccccc2)cc1)C(=O)O has an Emax [3] of 99%, a pEC50 [4] of 8.96 and an EC50 [4] of 1.07 µM.

Molecule CC(C)(C)c1ccc(-c2ccc(Oc3ccccc3CCC(=O)OCCCOP(=O)(O)OC[C@H](N)C(=O)O)cc2)cc1 has an Emax [3] of 78% and a pEC50 [4] of 8.52.

Molecule Cc1ccc(-c2ccc(Oc3ccccc3CCC(=O)OCCCOP(=O)(O)OC[C@H](N)C(=O)O)cc2)cc1 has an Emax [3] of 108% and a pEC50 [4] of 7.96.

N[C@@H](COP(=O)(O)OCCCCCOC(=O)CC(=O)Cc1ccccc1Oc1ccc(-c2ccccc2)cc1)C(=O)O was tested, and the Emax [3] was 105% and the pEC50 [4] was 6.62.

N[C@@H](COP(=O)(O)OCCCCOC(=O)CC(=O)Cc1ccccc1Oc1ccc(-c2ccccc2)cc1)C(=O)O gave an Emax [3] of 98% and a pEC50 [4] of 6.85.

For CC(C)(C)c1cccc(-c2ccc(Oc3ccccc3CCC(=O)OCCCOP(=O)(O)OC[C@H](N)C(=O)O)cc2)c1, the Emax [3] was 115% and the pEC50 [4] was 7.85.

CCCCCCCC/C=C\CCCCCCCC(=O)OCCCOP(=O)(O)OC[C@H](N)C(N)=O was tested, and the pEC50 [1] was under 5.52, the Emax [3] was 112% and the pEC50 [4] was 7.62.

In the case of CC(C)(C)c1cc(-c2cccc(COc3ccccc3CCC(=O)OCCCOP(=O)(O)OC[C@H](N)C(=O)O)c2)cc(C(C)(C)C)c1, the pEC50 [1] was under 5.52, the Emax [3] was 109% and the pEC50 [4] was 7.55.

For CCc1ccccc1-c1ccc(Oc2ccccc2CCC(=O)OCCCOP(=O)(O)OC[C@H](N)C(=O)O)cc1, the Emax [3] was 92% and the pEC50 [4] was 7.74.

Cc1ccc(Oc2ccccc2CCC(=O)OCCCOP(=O)(O)OC[C@H](N)C(=O)O)cc1 gave an Emax [5] of 117%, an Emax [6] of 114% and a pEC50 [7] of 6.09. The pEC50 [8] was 6.46, the Emax [9] was 92% and the pEC50 [10] was 6.18. For the same molecule, the Emax [3] was 88% and the pEC50 [4] was 6.85.

Work on N[C@@H](COP(=O)(O)OCCCOC(=O)CCc1ccccc1Oc1cc(-c2ccccc2)cc(-c2ccccc2)c1)C(=O)O yielded an Emax [11] of 152%, a pEC50 [12] of 6.92 and an Emax [3] of 121%. It also gave a pEC50 [4] of 7.64.

With CCCCCCCCCCCOc1ccccc1CCC(=O)OCC(F)(F)COP(=O)(O)OC[C@H](N)C(=O)O the Emax [3] was 94% and the pEC50 [4] was 8.82.

N[C@@H](COP(=O)(O)OCCCOC(=O)CCc1ccccc1Oc1ccc(C23C[C@H]4C[C@@H](C2)C[C@@H](C3)C4)cc1)C(=O)O showed an Emax [5] of 128%, an Emax [6] of 120% and a pEC50 [7] of 6.77. The pEC50 [8] was 6.41, the Emax [9] was 137% and the pEC50 [10] was 6.57. It also gave an Emax [3] of 107% and a pEC50 [4] of 7.24.

CC(C)(C)c1ccc(Oc2ccccc2CCC(=O)OCCCOP(=O)(O)OC[C@H](N)C(=O)O)cc1 was tested, and the Emax [5] was 131%, the Emax [6] was 119% and the pEC50 [7] was 6.74. The pEC50 [8] was 6.33, the Emax [9] was 113% and the pEC50 [10] was 6.60. For the same molecule, the Emax [3] was 123% and the pEC50 [4] was 7.17.

Molecule N#Cc1ccc(Oc2ccccc2CCC(=O)OCCCOP(=O)(O)OC[C@H](N)C(=O)O)cc1 has a pEC50 [4] of under 8.52 and an EC50 [4] of under 3.16 µM.

N[C@@H](COP(=O)(O)OCCCOC(=O)CCc1ccccc1Oc1ccccc1-c1ccccc1)C(=O)O gave a pEC50 [12] of under 8.52, an EC50 ([12]; read-out: pEC50 (converted)) of 5.13 µM and an Emax [3] of 105%. The pEC50 [4] was 6.05.

Cc1ccccc1Oc1ccccc1CCC(=O)OCCCOP(=O)(O)OC[C@H](N)C(=O)O showed an Emax [3] of 70% and a pEC50 [4] of 6.85.

Molecule N[C@@H](COP(=O)(O)OCCCOC(=O)CCc1ccccc1Oc1ccccc1)C(=O)O has an Emax [5] of 98%, a pEC50 [7] of under 5.52 and a pEC50 [8] of 5.80. For the same molecule, the Emax [9] was 104%, the pEC50 [10] was 5.82 and the Emax [3] was 93%. The pEC50 [4] was 6.40.

N[C@@H](COP(=O)(O)OCCOC(=O)CC(=O)Cc1ccccc1Oc1ccc(-c2ccccc2)cc1)C(=O)O showed a pEC50 [4] of under 8.52 and an EC50 [4] of 6.03 µM.

Reference: ChEMBL document CHEMBL5360551, “Exploration of LPS2 agonist binding modes using the combination of a new hydrophobic scaffold and homology modeling” (Eur J Med Chem, 2023)
